Key:
[1] = test system: OVA-specific immune response; experiment: OVA vaccination day 0 and 28, humoral immune response; assay type: in vivo, mice
Protocol: (§1) Mice were immunized on day 0 and 28 with one of […] formulations: 1.) 10 μg of OVA+30 μg, 2.) p(Man-TLR) (30 μg equivalent of TLR7-MA), 3.) 10 μg of OVA and unconjugated p(Man-TLR) (30 μg equivalent of TLR7-MA), 4.) 10 μg of OVA-p(Man) conjugate with 30 μg of TLR7-MA, or 5.) 10 μg of OVA-p(Man-TLR).
In order to initiate protection against extracellular microorganisms and to prevent the spread of intracellular infections, effective vaccines preferably induce a strong humoral immune response. The ability of OVA-p(Man-TLR) to mount an effective humoral immune response was analyzed by determining the percentage of T follicular helper (Tfh) cells in the LN and spleen, the number of antigen specific plasma cells in the spleen, and the OVA specific antibody titers of vaccinated mice. […] Given these impressive results, we analyzed the blood of vaccinated animals for total OVA-specific IgG titers as well as OVA-specific IgG2C titers.

[2] = test system: OVA-specific immune response; experiment: OVA vaccination day 0 and 28, T cell response after restimulation; assay type: in vivo, mice
Protocol: as §1
Given the ability of p(Man-TLR) to activate BMDCS and target tethered proteins to various DC-subsets, mice were treated with OVA-p(Man-TLR) and the OVA-specific immune response was analyzed. Animals were treated on day 0 and 28 with an i.d. injection of OVA-p(Man-TLR), OVA-p(Man)+TLR7-MA, OVA and unconjugated p(Man-TLR), p(Man-TLR), or OVA+CpG. Mice receiving formulations that contained either free or polymer-conjugated OVA were treated with 10 μg of OVA on days 0 and 28. Mice treated with formulations containing either TLR7-MA or p(man-TLR) either free or OVA conjugated received 30 μg of TLR7-agonist as TLR7-MA or the total weight of TLR7-MA monomer units in the polymer on days 0 and 28. Mice treated with OVA and CPG received 30 μg of CPG on days 0 and 28. After 35 days, the lymphocytes from the spleen and lymph node were harvested and restimulated with either whole OVA or the CD8 immunodominant peptide […].

[3] = test system: OVA-specific immune response; experiment: Example 11: in vivo immune response after footpad vaccination with OVA formulations; parameters: species or system mice
Protocol: FIG. 14: Mice were vaccinated at day 0 and day 28 with 10 μg OVA equivalent of the various forms and combinations shown, and were sacrificed on day 35 for analysis. The intensity of the CD8+ T cell response was judged by measuring the frequency of […] (SEQ ID NO. 1) pentamer-binding cells.
FIG. 15: Mice were vaccinated at day 0 and day 28 with 10 μg OVA equivalent of the various forms and combinations shown, and were sacrificed on day 35 for analysis. The cytokine responsiveness of cells in the LN was determined after antigen re-exposure. […] Separation of the formulation into its component parts was not effective: of particular note, free antigen mixed with but not conjugated to the p(Man-TLR) nanoadjuvant (OVA+pManTLR, yellow) was not nearly as effective, showing the need for the conjugate.
FIG. 16: The humoral response to vaccination was characterized by measuring the frequency of antibody-producing plasma cells and the frequency of Tfh cells in the spleen, and the antibody titers in the blood.
Mice were vaccinated in the four footpads on day 0 and 28 with either OVA-p(Man-TLR), OVA and mTLR, OVA conjugated to p(Man) (OVA-p(Man)) and mTLR, OVA+p(Man-TLR) or just p(Man-TLR). Animals treated with formulations containing OVA received 10 μg of OVA in its free or conjugated form, and animals treated with formulations containing TLR received 30 μg of TLR in its free or […] form. The animals were sacrificed on day 35 and the spleens and lymph nodes were analyzed for the resulting immune response.

[4] = test system: B16F10/OVA tumors; experiment: Example 13: cancer vaccination in mice bearing B16F10/OVA tumors; assay type: in vivo, C57BL/6 mice
Protocol: In order to determine if OVA-p(Man-TLR) conjugates could inhibit the growth of OVA-expressing tumors, mice bearing B16F10/OVA tumors (that is, B16F10 melanoma cells expressing the xeno-antigen OVA as a model tumor antigen) were treated with OVA-p(Man-TLR). 10^5 B16F10/OVA cells were inoculated subcutaneously (s.c.) between the scapulae in C57BL/6 mice on day 0 and left to engraft and grow for 4 days. On day 4, 7, and 14, mice were administered saline or vaccinated with OVA-p(Man-TLR) or OVA and free p(Man-TLR). Animals treated with OVA received 10 μg OVA and 40 μg of TLR.

[5] = test system: DCs (CD11c+ cells); experiment: Example 10: in vivo DC activation in draining lymph nodes after footpad injection; parameters: species or system mice; conditions: footpads, 50 μg fluorescently-labeled OVA, 24 h
From the text: Activation is highest in DCs that collect the formulation and thus are also antigen-positive. Thus, both antigen and adjuvant are co-delivered to the same DCs, which are then the cells that are activated. This is one of the benefits of selecting TLR7 as an adjuvant target, based on its intracellular, endosomal localization.
In order to be an effective adjuvant/delivery system for vaccine development, p(Man-TLR) conjugates preferably target antigens to APCs and activate these cells in vivo. Mice were injected in the footpads with 50 μg of fluorescently-labeled OVA conjugated to p(Man-TLR) or free non-conjugated fluorescently-labeled OVA. After 24 h, the draining lymph nodes of these animals were collected and processed into single cells suspensions. The lymphocytes were then analyzed via flow cytometry for the presence of the co-stimulatory molecule markers CD86 and CD80 on APCs. […] Furthermore, CD11c+ cells that had taken up OVA-p(Man-TLR) conjugates (i.e., Protein+CD11c+ cells) had higher levels of expression of CD80 and CD86 as compared to the expression of CD80 and CD86 on the total CD11c+ population of mice treated with OVA-p(Man-TLR).

Q: For “OVA-p(Man-TLR): model antigen ovalbumin (OVA) conjugated to p(Man-TLR) via self-immolative linker”, which “total OVA-specific IgG and IgG2C titers vs other vaccine formulations” value ([1]; blood of vaccinated animals) is on record?
A: Its value is “significant increase in both total IgG and IgG2C titers”.

Q: What about the “increase in number of IgG-producing plasma cells vs OVA+p(Man-TLR) or other formulations” value ([1]; day 35, spleen, FIG. 11C) of the same substance?
A: The value was “more than 2 fold”.

Q: What about the “percentage of Tfh in lymph node and spleen vs other treatments” value ([1]; day 35, vaccination on days 0 and 28) of the same substance?
A: Its value is “significantly increases the percentage of Tfh in the lymph node and spleen”.

Q: And the “IFNγ+CD4+ T cells after restimulation vs other treatments” value ([2]; i.d. day 0 and 28, 10 μg OVA, 30 μg TLR7-agonist, day 35)?
A: Its value is “significantly more IFNγ+CD4+ T cells”.

Q: What about the “IFNγ+CD8 T cells in the lymph nodes vs OVA-p(Man)+TLR7-MA and OVA+CpG” value ([2]; i.d. day 0 and 28, day 35) of the same substance?
A: Its value is “increased the number of IFNγ+CD8 T cells in the lymph nodes”.

Q: What about the “TNFα positive CD8+ and CD4+ T cells in restimulated splenocytes vs other TLR7-MA or p(Man-TLR) formulations” value ([2]; i.d. day 0 and 28, day 35) of the same substance?
A: The value was “significantly increased the number of CD8+ and CD4+ T cells that are positive for TNFα”.

Q: And the “OVA-specific total IgG vs non-conjugate vaccine (OVA+pMan-TLR)” value ([3]; FIG. 16)?
A: The value was “elevated by more than an order of magnitude”.

Q: What about the “CD8+ and CD4+ T cells positive for both TNFα and IFNγ upon restimulation vs other treatments” value ([3]; day 35) of the same substance?
A: The value was “significantly more CD8+ and CD4+ T cells that are positive for both the proinflammatory cytokines TNFα and IFNγ”.

Q: And the “OVA-specific antibodies in the blood vs other treatments” value ([3]; day 35)?
A: The value was “significantly more OVA-specific antibodies in the blood”.

Q: What about the “splenic IgG producing plasma cells and T follicular helper cells vs other treatments” value ([3]; day 35) of the same substance?
A: The value was “significantly more splenic IgG producing plasma cells and T follicular helper cells”.

Q: What about the “OVA pentamer+ cells in lymph nodes and spleens vs other therapies” value ([3]; footpads day 0 and 28, 10 μg OVA, 30 μg TLR, day 35) of the same substance?
A: Its value is “significantly more OVA pentamer+ cells in the lymph nodes and spleens”.

Q: What about the “growth of B16/OVA tumors” value ([4]; treated day 4, 7 and 14, 10 μg OVA and 40 μg of TLR) of the same substance?
A: The value was “capable of inhibiting the growth of B16/OVA tumors”.

Q: And the “pentamer+CD8+ cells in the draining lymph nodes vs OVA+p(Man-TLR)” value ([4]; tumor-bearing mice)?
A: The value was “induced significantly more pentamer+CD8+ cells in the draining lymph nodes”.

Q: What about the “percentage of OVA pentamer+ cells in the draining lymph nodes” value ([4]; tumor-bearing mice, FIG. 20) of the same substance?
A: Its value is “increased the percentage of OVA pentamer+ cells in the draining lymph nodes”.

Q: What about the “CD80 and CD86 expression on CD11c+ cells of draining lymph nodes vs free OVA” value [5] of the same substance?
A: The value was “express significantly more CD80 and CD86”.

Source: US11484599B2, “Polymer conjugate vaccines” (The University of Chicago, priority 2015, dated 2022)
